# Measured values: article PMC10269165 (Antimicrobial Agents and Chemotherapy, 2023)
# Experiments:
# Format in all cases: cell-based, Haemonchus contortus
# [1] = test system: H. contortus, susceptible (TxPh-2011-S) and MDR (UGA MDR 2020) isolates; assay: Larval development assay (LDA); conditions: for Hill slope: LDA dose-response curve; for anthelmintic activity in LDA: drug-susceptible and MDR isolates
# [2] = test system: MDR isolate of H. contortus, exsheathed L3 larvae; assay: Larval motility assay (LMA), Worminator
# Source text: The H. contortus isolates used were TxPh-2011-S (Texas A&M University, USA) and UGA MDR 2020 (University of Georgia Athens, USA). TxPh-2011-S (Texas A&M University, USA) was originally isolated from Pronghorn antelope in West Texas in 2011 and is fully drug susceptible, phenotypically determined by the DrenchRite larval development assay (LDA; Microbial Screening Technologies, Kemps Creek, Australia). To establish this as a laboratory isolate, it was initially passaged in goats at Texas A&M University and then at The University of Georgia using both goats and sheep, and it is currently maintained in lambs at Louisiana State University. A nemabiome assay ([69]) was conducted at the University of Calgary to confirm that the isolate is 100% H. contortus. The UGA MDR 2020 (University of Georgia Athens, USA) isolate is resistant to ivermectin, benzimidazoles, levamisole, and moxidectin, as determined by the DrenchRite LDA. To establish this as a laboratory isolate, feces collected from a sheep farm in Georgia with known history of multiple anthelmintic resistance were cultured. Two donor goats were infected with the larvae recovered, which were morphologically ([70]) identified as 89% H. contortus. A fecal egg count reduction test (FECRT) was then performed in the infected goats. First, a combination treatment with albendazole at 15 mg/kg and ivermectin at 0.4 mg/kg was performed, followed by a treatment with levamisole at 12 mg/kg. Later, and to confirm resistance to moxidectin, another treatment was administered using a dose of 0.4 mg/kg of moxidectin. Posttreatment feces were recovered, coprocultures were established, and L3 larvae were identified as 100% H. contortus. Resistance to all drugs was subsequently confirmed using a DrenchRite assay.
# For LMAs, the first phase testing using compounds NSC133100 and NSC177383 was done using the Worminator system in parallel with the LDA. Initial stock solutions of 12.5 mM were prepared for each compound using 100% DMSO as a solvent. Initial stock solutions (25 μL) were then diluted in 475 μL of culture media to yield working stock solutions of 625.00, 156.30, 39.10, 9.80, 2.40, 0.60, 0.20, 0.04, and 0.00 μM in 5% DMSO for each drug. In plate, 200 μL of working stock solutions were then diluted in 800 μL of culture media, yielding concentrations of 125.00, 31.25, 7.81, 1.95, 0.49, 0.12, and 0.00 μM in 1% DMSO. For the second phase of testing, compounds showing anthelmintic activity with the LDA were tested in a second round at higher concentrations than in the first phase of testing. Initial stocks of 50 mM were prepared for compounds NSC133100, NSC177383, NSC145612, and NSC56410 using 100% DMSO as a solvent. Initial stock solutions (25-μL portions) were then diluted in 475 μL of culture media consisting of 65% Lauria-Bertani (LB) (Thermo Fisher Scientific, Branchburg, NJ), 25% NCTC (Sigma-Aldrich), 10% fetal bovine serum (Atlanta Biologicals, Flowery Branch, GA), Pen/Strep (Sigma-Aldrich) at a final concentration of […], and amphotericin B (Sigma-Aldrich) at a final concentration of […]. The working stock solutions yielded concentrations of 2,500.00, 625.00, 156.30, 39.10, 9.80, 2.40, and 0.00 μM in 5% DMSO for each compound. In each well in the plate, 200 μL of working stock solutions were then diluted in 800 μL of culture media, yielding final concentrations of 500.00, 125.00, 31.30, 7.81, 1.95, 0.49, and 0.00 μM in 1% DMSO.
# For the motility assays, 24-well plates with inserts were used (Costar, catalog no. 3379; Corning, Inc., Corning, NY). Portions (640 μL) of culture media were added to each well, and approximately 50 exsheathed larvae contained in 160 μL of culture media in each insert. Once pretreatment readings were taken, 160 μL of the drug solution was added to the well, and another 40 μL was added to the insert, reaching the final concentrations described in the protocol above. All concentrations were tested in triplicate. […]
# [3] = test system: MDR isolate of H. contortus, exsheathed L3 larvae; assay: Larval motility assay (LMA), Worminator; remark: listed apart in the source
smiles,measurement,setting,value
CO[C@@]12[C@H](COC(N)=O)C3=C(C(=O)C(C)=C(N)C3=O)N1C[C@H]1[C@@H]2N1C (some centres unmarked) [NSC56410],IC50,"[1]; Haemonchus contortus, read-out: Anthelmintic IC50 by LDA (95% confidence interval)",800 nM
same,fold higher potency than NSC133100,[1]; LDA IC50,~ 5 fold
same,fold higher potency than NSC145612,[1]; LDA IC50,~39 fold
same,fold higher potency than NSC177383,[1]; LDA IC50,~6 fold
same,Hill slope,[1],0.45
same,anthelmintic activity in LDA,[1],activity in the lower micromolar range
CO[C@H]1/C=C/O[C@@]2(C)Oc3c(C)c(O)c4c(O)c(cc(O)c4c3C2=O)NC(=O)/C(C)=C\C=C\[C@H](C)[C@H](O)[C@@H](C)[C@@H](O)[C@@H](C)[C@H](OC(C)=O)[C@@H]1C [NSC133100],fold higher potency than NSC145612,[1]; LDA IC50,~ 7 fold
same,Hill slope,[1],0.60
same,anthelmintic activity in LDA,[1],activity in the lower micromolar range
same,Percent inhibition of larval motility,"[2]; 15.625 µM, 1 hour",6.1%
same,Percent inhibition of larval motility,"[2]; 15.625 µM, 4 hours",6.9%
same,Percent inhibition of larval motility,"[2]; 15.625 µM, 24 hours",-6.8%
same,Percent inhibition of larval motility,"[2]; 15.625 µM, 48 hours",-11.1%
same,Percent inhibition of larval motility,"[2]; 15.625 µM, 72 hours",-11.7%
same,Percent inhibition of larval motility,"[2]; 15.625 µM, 96 hours",-3.4%
same,Percent inhibition of larval motility,"[2]; 15.625 µM, Initial",-7.4%
same,Percent inhibition of larval motility,"[2]; 31.25 µM, 1 hour",6.3%
same,Percent inhibition of larval motility,"[2]; 31.25 µM, 4 hours",1.6%
same,Percent inhibition of larval motility,"[2]; 31.25 µM, 24 hours",0.6%
same,Percent inhibition of larval motility,"[2]; 31.25 µM, 48 hours",11.9%
same,Percent inhibition of larval motility,"[2]; 31.25 µM, 72 hours",3.1%
same,Percent inhibition of larval motility,"[2]; 31.25 µM, 96 hours",5.5%
same,Percent inhibition of larval motility,"[2]; 31.25 µM, Initial",-21.7%
same,Percent inhibition of larval motility,"[2]; 62.5 µM, 4 hours",-11.1%
same,Percent inhibition of larval motility,"[2]; 62.5 µM, 24 hours",-12.6%
same,Percent inhibition of larval motility,"[2]; 62.5 µM, 48 hours",-2.3%
same,Percent inhibition of larval motility,"[2]; 125 µM, 1 hour",33.8%
same,Percent inhibition of larval motility,"[2]; 125 µM, 4 hours",3.0%
same,Percent inhibition of larval motility,"[2]; 125 µM, 24 hours",-6.2%
same,Percent inhibition of larval motility,"[2]; 125 µM, 48 hours",18.4%
same,Percent inhibition of larval motility,"[2]; 125 µM, 72 hours",14.0%
same,Percent inhibition of larval motility,"[2]; 125 µM, 96 hours",26.6%
same,Percent inhibition of larval motility,"[2]; 125 µM, Initial",-12.3%
same,Percent inhibition of larval motility,"[2]; 250 µM, 1 hour",38.9%
same,Percent inhibition of larval motility,"[2]; 250 µM, 24 hours",-12.4%
same,Percent inhibition of larval motility,"[2]; 250 µM, 48 hours",28.6%
same,Percent inhibition of larval motility,"[2]; 250 µM, 96 hours",0.9%
same,Percent inhibition of larval motility,"[2]; 250 µM, Initial",-11.5%
same,Percent inhibition of larval motility,"[2]; 500 µM, 1 hour",33.9%
same,Percent inhibition of larval motility,"[2]; 500 µM, 4 hours",-2.0%
same,Percent inhibition of larval motility,"[2]; 500 µM, 24 hours",-0.5%
same,Percent inhibition of larval motility,"[2]; 500 µM, 48 hours",22.2%
same,Percent inhibition of larval motility,"[2]; 500 µM, 72 hours",12.1%
same,Percent inhibition of larval motility,"[2]; 500 µM, 96 hours",18.5%
same,Percent inhibition of larval motility,"[2]; 500 µM, Initial",5.8%
same,Percent inhibition of larval motility,"[3]; 62.5 µM, 1 hour",13.5%
same,Percent inhibition of larval motility,"[3]; 62.5 µM, 72 hours",-9.5%
same,Percent inhibition of larval motility,"[3]; 62.5 µM, 96 hours",-1.6%
same,Percent inhibition of larval motility,"[3]; 62.5 µM, Initial",-25.7%
same,Percent inhibition of larval motility,"[3]; 250 µM, 4 hours",-5.6%
same,Percent inhibition of larval motility,"[3]; 250 µM, 72 hours",-1.2%
CO[C@@H]1/C=C\O[C@]2(C)Oc3c(C)c(O)c4c(O)c(c(CN(C)C)c(O)c4c3C2=O)NC(=O)/C(C)=C\C=C[C@@H](C)[C@@H](O)[C@H](C)[C@@H](O)[C@H](C)[C@H](OC(C)=O)[C@@H]1C [NSC145612],Hill slope,[1],0.79
same,anthelmintic activity in LDA,[1],activity in the lower micromolar range
same,Percent inhibition of larval motility,"[2]; 15.625 µM, 1 hour",-10.3%
same,Percent inhibition of larval motility,"[2]; 15.625 µM, 4 hours",7.3%
same,Percent inhibition of larval motility,"[2]; 15.625 µM, 24 hours",7.0%
same,Percent inhibition of larval motility,"[2]; 15.625 µM, 48 hours",8.1%
same,Percent inhibition of larval motility,"[2]; 15.625 µM, 72 hours",23.0%
same,Percent inhibition of larval motility,"[2]; 15.625 µM, 96 hours",17.4%
same,Percent inhibition of larval motility,"[2]; 15.625 µM, Initial",20.3%
same,Percent inhibition of larval motility,"[2]; 31.25 µM, 1 hour",20.1%
same,Percent inhibition of larval motility,"[2]; 31.25 µM, 4 hours",-11.2%
same,Percent inhibition of larval motility,"[2]; 31.25 µM, 24 hours",27.2%
same,Percent inhibition of larval motility,"[2]; 31.25 µM, 48 hours",21.9%
same,Percent inhibition of larval motility,"[2]; 31.25 µM, 72 hours",43.2%
same,Percent inhibition of larval motility,"[2]; 31.25 µM, 96 hours",3.9%
same,Percent inhibition of larval motility,"[2]; 31.25 µM, Initial",21.0%
same,Percent inhibition of larval motility,"[2]; 62.5 µM, 4 hours",32.0%
same,Percent inhibition of larval motility,"[2]; 62.5 µM, 24 hours",10.4%
same,Percent inhibition of larval motility,"[2]; 62.5 µM, 48 hours",14.1%
same,Percent inhibition of larval motility,"[2]; 125 µM, 1 hour",31.7%
same,Percent inhibition of larval motility,"[2]; 125 µM, 4 hours",34.3%
same,Percent inhibition of larval motility,"[2]; 125 µM, 24 hours",15.7%
same,Percent inhibition of larval motility,"[2]; 125 µM, 48 hours",8.1%
same,Percent inhibition of larval motility,"[2]; 125 µM, 72 hours",3.0%
same,Percent inhibition of larval motility,"[2]; 125 µM, 96 hours",-6.9%
same,Percent inhibition of larval motility,"[2]; 125 µM, Initial",21.6%
same,Percent inhibition of larval motility,"[2]; 250 µM, 1 hour",13.0%
same,Percent inhibition of larval motility,"[2]; 250 µM, 24 hours",-8.6%
same,Percent inhibition of larval motility,"[2]; 250 µM, 48 hours",13.8%
same,Percent inhibition of larval motility,"[2]; 250 µM, 96 hours",12.8%
same,Percent inhibition of larval motility,"[2]; 250 µM, Initial",25.9%
same,Percent inhibition of larval motility,"[2]; 500 µM, 1 hour",-19.2%
same,Percent inhibition of larval motility,"[2]; 500 µM, 4 hours",0.4%
same,Percent inhibition of larval motility,"[2]; 500 µM, 24 hours",-12.0%
same,Percent inhibition of larval motility,"[2]; 500 µM, 48 hours",14.1%
same,Percent inhibition of larval motility,"[2]; 500 µM, 72 hours",9.6%
same,Percent inhibition of larval motility,"[2]; 500 µM, 96 hours",-5.1%
same,Percent inhibition of larval motility,"[2]; 500 µM, Initial",9.3%
same,Percent inhibition of larval motility,"[3]; 62.5 µM, 1 hour",16.7%
same,Percent inhibition of larval motility,"[3]; 62.5 µM, 72 hours",18.3%
same,Percent inhibition of larval motility,"[3]; 62.5 µM, 96 hours",3.8%
same,Percent inhibition of larval motility,"[3]; 62.5 µM, Initial",10.1%
same,Percent inhibition of larval motility,"[3]; 250 µM, 4 hours",47.0%
same,Percent inhibition of larval motility,"[3]; 250 µM, 72 hours",9.2%
